{"source": "paper PMC11887077", "about": "(BMC Cancer, 2025)", "origin": "cited, not measured here", "system": "NRP1", "settings": "in vitro"}
{"substance": "CLKADK [CK2]", "values": [{"measurement": "affinity with NRP1 compared with CK3", "value": "higher affinity"}]}
